{
  "source": "paper PMC12117711",
  "about": "“The contribution of cyclic imide stereoisomers on cereblon-dependent activity†” (Chemical Science, 2025)",
  "key": {"MOLM13 cells": {"system": "MOLM13 cells", "test": "Global quantitative proteomics of protein levels", "format": "cell-based", "conditions": "4 h; for FC [fold change abundances (rac/DMSO)] / logFC (rac vs DMSO) / FC [fold change abundances (R/DMSO)] / logFC (R vs DMSO): MOLM13, 100 nM", "procedure": "Global Quantitative Proteomics Sample Preparation and Mass Spectrometry Acquisition Global Quantitative Proteomics was performed according to the previously reported method.7 Briefly, 1.0×10^6 MOLM13 cells were seeded in 12-well plates and small molecules of interest were added, and cells were incubated at 37 °C, 5% CO2 for 4 hours. Cells were collected […]\n15 sec in total, 11% amplitude) in lysis buffer (5% SDS in 50 mM triethylammonium bicarbonate (TEAB), pH 7.55), and cleared by centrifugation (21,000 × g, 4 °C, 10 min). After protein quantification by BCA protein assay, the lysates were diluted to 1.5 mg/mL with the lysis buffer. The diluted lysates (60 μL) were reduced by addition of dithiothreitol (20 mM) at 24 °C for 30 min then alkylated by addition of iodoacetamide (40 mM) and incubation in the dark at 24 °C for 30 min."}, "His6-CRBN/DDB1": {"target": "His6-CRBN/DDB1 (Homo sapiens, UniProt Q96SW2)", "test": "TR-FRET ligand displacement assay (Thal-FITC tracer) with His6-CRBN/DDB1"}, "[1]": {"target": "T1, His6-CRBN/DDB1 and GST-BRD4(BD2) (Homo sapiens, UniProt O60885+Q96SW2)", "T1 construct": "His6-CRBN/DDB1 complex and GST-BRD4 BD2 domain; purchased Epicypher (GST-BRD4(BD2)); Bristol Myers Squibb gift (His6-CRBN/DDB1) 15-0013", "test": "AlphaScreen ternary complex formation, His6-CRBN/DDB1 and GST-BRD4(BD2)", "format": "binding", "procedure": "AlphaScreen was performed according to the previously reported method.7 Briefly, for AlphaScreen of His6-CRBN/DDB1, GST-IKZF1 and (S)-, (R)- or rac-lenalidomide-d3, a solution of 100 nM His6-CRBN/DDB1 and 200 nM GST-IKZF1 in 1x AlphaScreen buffer (5 µL) and a solution of the indicated compound in 1x AlphaScreen buffer (5 µL) were added to a each well of a 384-well Optiplate and incubated at 24 °C for 1 h. To each well, a solution of 5 µL of 60 µg/mL AlphaScreen Glutathione Donor beads, 60 µg/mL AlphaLISA Nickel Chelate Donor beads in 1× AlphaScreen buffer was added to each well and incubated at 24 °C for 1 h in the dark and the plate was analyzed. For AlphaScreen of His6-CRBN/DDB1, GST-BRD4(BD2) and bivalent degraders, a solution of 750 nM His-CRBN/DDB1 and 375 nM GST-BRD4(BD2) in 1x AlphaScreen buffer (5 µL) and a solution of the indicated compound in 1x AlphaScreen buffer (5 µL) were added to a each well of a 384-well Optiplate and incubated at 24 °C for 1 h. To each well, a solution of 5 µL of 60 µg/mL AlphaScreen Glutathione Donor beads, 60 µg/mL AlphaLISA Nickel Chelate Donor beads in 1× AlphaScreen buffer was added to each well and incubated at 24 °C for 1 h in the dark and the plate was analyzed. […]\nheated at 95 °C for 5 min. 10 µL of the immunoprecipitated sample was load on a 12% Tris-glycine gel and probe-labeling was visualized by fluorescence signal. Separately, 10 µL of the immunoprecipitated sample and the “input” sample were load on a 12% Tris-glycine gel and analyzed by Western blotting. […]\nParental cell lines were stably infected with a unique 24-nucleotide DNA barcode via lentiviral transduction and blasticidin selection. […] Passing barcoded lines were then pooled (20-25 cell lines per pool) based on doubling time and frozen in assay-ready vials.\nTest compounds were added to 384-well plates and run at 8 pt. dose with 3-fold dilutions, the highest concentration of 25 µM in triplicate. These assay ready plates were then seeded with […]"}, "[2]": {"target": "T2, thalidomide-binding domain of CRBN (CULT) (Homo sapiens, UniProt Q96SW2)", "T2 construct": "made in house", "T2 sequence (Q96SW2 318-426 limits assumed)": "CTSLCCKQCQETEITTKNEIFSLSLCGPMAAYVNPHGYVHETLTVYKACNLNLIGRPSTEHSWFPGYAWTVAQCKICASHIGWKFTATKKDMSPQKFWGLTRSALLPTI", "test": "Photoaffinity labeling binding site mapping with i-pLen probes by LC-MS/MS", "conditions": "equimolar mixture of i-pLen probes, photolysis after 30 min at 24 °C", "procedure": "(§1) (v21.1.1) and Adobe Illustrator (v24.1).\n(§2) MM.1S, MOLM13, Jurkat, and BxPC3 […]\n(§3) μg/mL), and 10% (v/v) FBS.\n(§4) Western Blotting Procedures […]\n(§5) lysates and the concentration was adjusted using lysis buffer. 5× SDS-PAGE loading buffer […]\n(§6) Protein samples (8–15 μL per lane) were […]\n(§7) precast gels for medium molecular weight proteins. Gels were transferred to membranes using […]\n(§8) for high molecular weight proteins. Membranes were stained with Ponceau S solution to visualize transfer and protein loading.\n(§9) Degradation assay by flow cytometry […]\n(§10) resuspension in DMEM +/– without phenol red. For IKZF1 degradation assay, propidium […]\n(§11) equipped with a high throughput sampler. […]\n(§12) using the BD FACSDiva software v9.1. For each experimental condition, the arithmetic mean […]\n(§13) comparing compound treatment to DMSO control.\n(§14) Structural proteomics mass spectrometry sample preparation […]\naddition of a pre-mixed cocktail (final concentrations: 100 μM cleavable biotin picolyl-azide probe, 250 μM THPTA, 250 μM CuSO4, 2.5 mM freshly dissolved sodium ascorbate) and incubated for 1.5 h at 25 °C with inversion. After excess reagent was removed by acetone precipitation, the protein pellet was resuspended in 100 mM TEAB (50 μL, pH=8.5) and 100 mM DTT/PBS (1.5 μL, final concentration 3 mM) was added before incubating for 30 min at 25 °C with inversion. […]\nThe raw data were analyzed using Proteome Discoverer 2.4.1.15. […]"}, "[3]": {"target": "T3, BRD4(BD1)-GFP in HEK293T cells (Homo sapiens, UniProt O60885+Q96SW2)", "T3 construct": "HEK293T cells stably expressing BRD4(BD1) fused to GFP", "test": "Degradation assay by flow cytometry, BRD4(BD1)-GFP", "format": "cell-based", "conditions": "76 pM–20 μM, 4 h", "procedure": "as §1, §2, §3, §4, §5, §6, §7, §8, §9, §10, §11, §12, §13, §14\nsample throughout the assay duration. The same analysis was also applied to the (S)- […]\ndependent activity, we adjusted the dose-response curves accordingly. Because dose- […]\nwithin the error margins of the original curve. […]\nsquares F-test. This analysis determined whether there was a statistically significant […]\nderived (S)-enantiomer. If there is a statistically significant difference, the null […]\nCells were treated with 1 μM MLN4924\nThe cells were collected and lysed in […]\ncentrifugation (21,000 × g, 4 °C, 10 min). […]"}, "[4]": {"conditions": "KD, competitive TR-FRET, His6-CRBN/DDB1"}, "[5]": {"conditions": "Protein CRBN, from IC50 with Correction Factor 1.43"}},
  "data": [
    {"compound": "[2H]C1([2H])CC([2H])(N2Cc3cc(NC(=O)CCCCCCCCNC(=O)C[C@@H]4N=C(c5ccc(Cl)cc5)c5c(sc(C)c5C)-n5c(C)nnc54)ccc3C2=O)C(=O)NC1=O", "note": "(mixture of isomers) [JQ1-rac-Len-d3]", "values": [
      {"measurement": "FC [fold change abundances (rac/DMSO)]", "setting": "MOLM13 cells; protein AHCY", "result": 0.9686},
      {"measurement": "logFC (rac vs DMSO)", "setting": "MOLM13 cells; protein AHCY", "result": 0.2393},
      {"measurement": "FC [fold change abundances (rac/DMSO)]", "setting": "MOLM13 cells; protein GNB4", "result": -1.362},
      {"measurement": "logFC (rac vs DMSO)", "setting": "MOLM13 cells; protein GNB4", "result": -0.6098},
      {"measurement": "FC [fold change abundances (rac/DMSO)]", "setting": "MOLM13 cells; protein NUP88", "result": -1.247},
      {"measurement": "logFC (rac vs DMSO)", "setting": "MOLM13 cells; protein NUP88", "result": -0.5083},
      {"measurement": "FC [fold change abundances (rac/DMSO)]", "setting": "MOLM13 cells; protein SATB2", "result": -1.143},
      {"measurement": "logFC (rac vs DMSO)", "setting": "MOLM13 cells; protein SATB2", "result": -0.4122},
      {"measurement": "FC [fold change abundances (rac/DMSO)]", "setting": "MOLM13 cells; protein TUBB4B", "result": 1.098},
      {"measurement": "logFC (rac vs DMSO)", "setting": "MOLM13 cells; protein TUBB4B", "result": 0.3694},
      {"measurement": "Kd", "setting": "His6-CRBN/DDB1; [4]", "result": "< 2", "unit": "nM"},
      {"measurement": "ternary complex formation between His6-CRBN/DDB1 and GST-BRD4(BD2)", "setting": "[1]", "result": "much less than JQ1-(S)-Len-d3"}
    ]},
    {"compound": "C#CCCC1(CC(=O)Nc2ccc3c(c2)C[15N]([C@@H]2CCC(=O)NC2=O)C3=O)N=N1", "note": "[(R)-i-pLen]", "values": [
      {"measurement": "CRBN residue labeled by the probe", "setting": "[2]", "result": "Tyr355"}
    ]},
    {"compound": "C#CCCC1(CC(=O)Nc2ccc3c(c2)CN([C@H]2CCC(=O)[15NH]C2=O)C3=O)N=N1", "note": "[(S)-i-pLen]", "values": [
      {"measurement": "CRBN residue labeled by the probe", "setting": "[2]", "result": "His353"}
    ]},
    {"compound": "[2H]C1([2H])C[C@@]([2H])(N2Cc3cc(NC(=O)CCCCCCCCNC(=O)C[C@@H]4N=C(c5ccc(Cl)cc5)c5c(sc(C)c5C)-n5c(C)nnc54)ccc3C2=O)C(=O)NC1=O", "note": "[JQ1-(R)-Len-d3]", "values": [
      {"measurement": "BRD4 protein levels by global quantitative proteomics", "setting": "MOLM13 cells; MOLM13 cells, 100 nM", "result": "unperturbed"},
      {"measurement": "FC [fold change abundances (R/DMSO)]", "setting": "MOLM13 cells; protein ARID1A", "result": 3.475},
      {"measurement": "logFC (R vs DMSO)", "setting": "MOLM13 cells; protein ARID1A", "result": 1.826},
      {"measurement": "FC [fold change abundances (R/DMSO)]", "setting": "MOLM13 cells; protein CAB39", "result": 0.9606},
      {"measurement": "logFC (R vs DMSO)", "setting": "MOLM13 cells; protein CAB39", "result": 0.2309},
      {"measurement": "FC [fold change abundances (R/DMSO)]", "setting": "MOLM13 cells; protein FLII", "result": 1.596},
      {"measurement": "logFC (R vs DMSO)", "setting": "MOLM13 cells; protein FLII", "result": 0.7992},
      {"measurement": "FC [fold change abundances (R/DMSO)]", "setting": "MOLM13 cells; protein FUBP3", "result": 1.064},
      {"measurement": "logFC (R vs DMSO)", "setting": "MOLM13 cells; protein FUBP3", "result": 0.3358},
      {"measurement": "FC [fold change abundances (R/DMSO)]", "setting": "MOLM13 cells; protein TPD52", "result": 1.273},
      {"measurement": "logFC (R vs DMSO)", "setting": "MOLM13 cells; protein TPD52", "result": 0.5322},
      {"measurement": "Kd", "setting": "His6-CRBN/DDB1; [4]", "result": 79, "unit": "nM"},
      {"measurement": "degradation of BRD4(BD1)-GFP", "setting": "[3]", "result": "limited activity"}
    ]},
    {"compound": "Cc1sc2c(c1C)C(c1ccc(Cl)cc1)=N[C@@H](CC(=O)NCCCCCCCCC(=O)N[C@@H](Cc1ccccc1)C(=O)N[C@@H]1CCC(=O)NC1=O)c1nnc(C)n1-2", "note": "[JQ1-FepicQ]", "values": [
      {"measurement": "pIC50 (M)", "setting": "His6-CRBN/DDB1; Protein CRBN, Thalidomide-FITC tracer 50 nM", "result": 6.08, "unit": "M"},
      {"measurement": "IC50", "setting": "His6-CRBN/DDB1; Protein CRBN, Thalidomide-FITC tracer 50 nM, protein […]", "result": 840, "unit": "nM"},
      {"measurement": "Kd", "setting": "His6-CRBN/DDB1; [5]", "result": 589, "unit": "nM"},
      {"measurement": "pKD (M)", "setting": "His6-CRBN/DDB1; [5]", "result": 6.23, "unit": "M"},
      {"measurement": "ternary complex formation between His6-CRBN/DDB1 and GST-BRD4(BD2)", "setting": "[1]", "result": "minimally promoted the ternary complex"}
    ]}
  ]
}
